# Assay results reported in ChEMBL document CHEMBL1201862, “PubChem BioAssay data set” (2004).
# Activity calls are given as the source filed them.
# Columns and labels:
# [1] = target: T1, Trace amine-associated receptor 1 (Homo sapiens, UniProt Q96RJ0); assay: Counterscreen for agonists of the human trace amine associated receptor 1 (hTAAR1): Fluorescence-based cell-based high throughput dose response assay to identify hTAAR1 agonist that also desensitize TAAR1 receptor response.; assay type: functional
# T1 sequence (Q96RJ0 whole entry): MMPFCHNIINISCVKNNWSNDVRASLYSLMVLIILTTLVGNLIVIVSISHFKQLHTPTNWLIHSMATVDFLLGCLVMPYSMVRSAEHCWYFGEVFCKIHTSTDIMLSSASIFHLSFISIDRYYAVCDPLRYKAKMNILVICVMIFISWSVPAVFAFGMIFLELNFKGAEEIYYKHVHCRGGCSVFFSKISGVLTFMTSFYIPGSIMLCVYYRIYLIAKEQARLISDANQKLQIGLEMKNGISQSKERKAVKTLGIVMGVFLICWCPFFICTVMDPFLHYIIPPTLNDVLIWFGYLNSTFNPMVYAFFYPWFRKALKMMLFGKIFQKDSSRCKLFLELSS
# [2] = target: T1, Trace amine-associated receptor 1; assay: Fluorescence-based cell-based high throughput dose response assay to identify agonists of the human trace amine associated receptor 1 (TAAR1).; assay type: functional
# cells [3] = assay type: functional, cell-based
# cells [4] = assay type: functional, cell-based; remark: listed apart in the source
# Vero = Vero cell cytotoxicity, cytotoxicity control for flavivirus capping enzyme inhibitors (AID 588742); assay type: functional; conditions: Chlorocebus sabaeus
# [5] = target: T2, Polyadenylate-binding protein 1 (Homo sapiens, UniProt P11940); assay: PABP1 MLLE–PAM2 binding inhibitor potency, dose response, biochemical, fluorescence polarization, FITC-PAM2 peptide (AID 602259); assay type: functional; conditions: read-out: IC50_Mean
# [6] = target: T2, Polyadenylate-binding protein 1; assay: PABP1 MLLE–PAM2 interaction inhibitors, dose response, miRNA deadenylation inhibitor project, biochemical, fluorescence polarization, Cy5-PAM2 peptide, secondary (AID 602260); assay type: functional; conditions: read-out: IC50_Mean
# [7] = inhibitors of intracellular T. cruzi replication, confirmation, NIH3T3 host cells, beta-gal luminescence (AID 2044); assay type: functional, cell-based;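 also: intracellular parasites grown in NIH/3T3 mouse fibroblasts as host cells; luminescent beta-galactosidase reporter signal from transgenic T. cruzi replicating inside host cells; inhibitors lower the luminescence signal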
# [8] = Counterscreen for inhibitors of Trypanosoma brucei methionyl tRNA synthetase (MetRS): Luminescence-based cell-based high throughput dose response assay to identify compounds that are cytotoxic to Jurkat human T lymphocyte cells.; assay type: functional
# [9] = target: T3, Methionyl-tRNA synthetase, putative (Trypanosoma brucei brucei, UniProt Q38C91); assay type: functional, Trypanosoma brucei brucei strain 927/4 GUTat10.1
# T3 sequence (Q38C91 whole entry): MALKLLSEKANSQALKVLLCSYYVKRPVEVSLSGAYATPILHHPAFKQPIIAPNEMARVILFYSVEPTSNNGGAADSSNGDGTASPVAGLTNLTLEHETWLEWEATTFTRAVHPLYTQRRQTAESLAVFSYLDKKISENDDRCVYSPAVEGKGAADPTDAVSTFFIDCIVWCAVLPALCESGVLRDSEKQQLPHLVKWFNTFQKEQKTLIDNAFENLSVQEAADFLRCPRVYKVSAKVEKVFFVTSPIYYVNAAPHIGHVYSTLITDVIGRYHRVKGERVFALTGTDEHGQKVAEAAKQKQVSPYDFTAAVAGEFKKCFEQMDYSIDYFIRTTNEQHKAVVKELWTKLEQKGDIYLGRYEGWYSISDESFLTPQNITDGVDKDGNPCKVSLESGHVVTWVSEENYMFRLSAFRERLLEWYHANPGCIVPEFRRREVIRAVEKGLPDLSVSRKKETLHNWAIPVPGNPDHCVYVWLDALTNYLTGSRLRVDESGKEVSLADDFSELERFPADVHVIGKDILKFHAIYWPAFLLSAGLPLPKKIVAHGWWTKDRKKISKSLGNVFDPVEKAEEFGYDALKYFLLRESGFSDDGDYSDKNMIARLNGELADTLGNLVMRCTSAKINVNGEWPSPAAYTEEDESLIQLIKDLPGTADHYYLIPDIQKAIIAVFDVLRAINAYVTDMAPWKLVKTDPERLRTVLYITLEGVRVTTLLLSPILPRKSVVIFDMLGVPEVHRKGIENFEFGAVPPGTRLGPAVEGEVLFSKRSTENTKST
# [10] = target: T3, Methionyl-tRNA synthetase, putative; assay type: functional, Trypanosoma brucei brucei strain 927/4 GUTat10.1; remark: listed apart in the source
# [11] = cytotoxicity toward NIH3T3 fibroblasts, dose response, counter-screen, cell-based, ATP luminescence, mouse fibroblasts (AID 2010); assay type: functional;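 also: cells exposed to compound for about 90 hours before reading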
# Hexokinase HKDC1 = target: T4, Hexokinase HKDC1 (Homo sapiens, UniProt Q2TB90); assay: SAR analysis of small molecule inhibitors of hexokinase domain containing I (HKDC1). [Related pubchem assays (depositor defined):AID493160, AID493190]; assay type: functional
# T4 sequence (Q2TB90 whole entry): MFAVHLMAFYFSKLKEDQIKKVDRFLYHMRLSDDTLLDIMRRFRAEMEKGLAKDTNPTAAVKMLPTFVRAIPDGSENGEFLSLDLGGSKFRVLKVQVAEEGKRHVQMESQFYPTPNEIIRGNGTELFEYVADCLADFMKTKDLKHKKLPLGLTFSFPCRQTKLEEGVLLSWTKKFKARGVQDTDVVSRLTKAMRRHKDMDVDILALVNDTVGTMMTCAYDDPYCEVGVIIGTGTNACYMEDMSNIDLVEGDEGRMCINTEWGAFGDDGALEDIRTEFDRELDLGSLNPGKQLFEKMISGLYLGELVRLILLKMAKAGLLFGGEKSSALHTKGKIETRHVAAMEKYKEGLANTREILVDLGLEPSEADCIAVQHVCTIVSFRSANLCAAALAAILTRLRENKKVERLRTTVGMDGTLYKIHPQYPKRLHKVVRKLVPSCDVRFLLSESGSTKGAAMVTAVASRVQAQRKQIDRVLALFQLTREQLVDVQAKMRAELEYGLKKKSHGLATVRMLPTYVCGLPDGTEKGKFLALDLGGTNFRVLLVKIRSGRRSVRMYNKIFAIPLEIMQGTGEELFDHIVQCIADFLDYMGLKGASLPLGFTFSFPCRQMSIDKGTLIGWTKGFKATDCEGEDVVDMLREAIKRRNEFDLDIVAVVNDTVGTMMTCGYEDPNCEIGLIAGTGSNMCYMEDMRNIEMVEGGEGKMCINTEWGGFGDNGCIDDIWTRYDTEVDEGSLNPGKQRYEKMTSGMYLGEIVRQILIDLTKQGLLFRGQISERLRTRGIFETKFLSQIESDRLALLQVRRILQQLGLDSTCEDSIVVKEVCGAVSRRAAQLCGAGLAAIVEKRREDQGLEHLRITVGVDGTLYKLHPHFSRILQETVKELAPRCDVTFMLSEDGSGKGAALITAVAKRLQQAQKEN
# Hexokinase-1 = target: T5, Hexokinase-1 (Homo sapiens, UniProt P19367); assay: SAR analysis of small molecule inhibitors of hexokinase domain containing I (HKDC1) in the hexokinase 1 selectivity assay. [Related pubchem assays (depositor defined):AID493160, AID493190]; assay type: functional
# T5 sequence (P19367 whole entry): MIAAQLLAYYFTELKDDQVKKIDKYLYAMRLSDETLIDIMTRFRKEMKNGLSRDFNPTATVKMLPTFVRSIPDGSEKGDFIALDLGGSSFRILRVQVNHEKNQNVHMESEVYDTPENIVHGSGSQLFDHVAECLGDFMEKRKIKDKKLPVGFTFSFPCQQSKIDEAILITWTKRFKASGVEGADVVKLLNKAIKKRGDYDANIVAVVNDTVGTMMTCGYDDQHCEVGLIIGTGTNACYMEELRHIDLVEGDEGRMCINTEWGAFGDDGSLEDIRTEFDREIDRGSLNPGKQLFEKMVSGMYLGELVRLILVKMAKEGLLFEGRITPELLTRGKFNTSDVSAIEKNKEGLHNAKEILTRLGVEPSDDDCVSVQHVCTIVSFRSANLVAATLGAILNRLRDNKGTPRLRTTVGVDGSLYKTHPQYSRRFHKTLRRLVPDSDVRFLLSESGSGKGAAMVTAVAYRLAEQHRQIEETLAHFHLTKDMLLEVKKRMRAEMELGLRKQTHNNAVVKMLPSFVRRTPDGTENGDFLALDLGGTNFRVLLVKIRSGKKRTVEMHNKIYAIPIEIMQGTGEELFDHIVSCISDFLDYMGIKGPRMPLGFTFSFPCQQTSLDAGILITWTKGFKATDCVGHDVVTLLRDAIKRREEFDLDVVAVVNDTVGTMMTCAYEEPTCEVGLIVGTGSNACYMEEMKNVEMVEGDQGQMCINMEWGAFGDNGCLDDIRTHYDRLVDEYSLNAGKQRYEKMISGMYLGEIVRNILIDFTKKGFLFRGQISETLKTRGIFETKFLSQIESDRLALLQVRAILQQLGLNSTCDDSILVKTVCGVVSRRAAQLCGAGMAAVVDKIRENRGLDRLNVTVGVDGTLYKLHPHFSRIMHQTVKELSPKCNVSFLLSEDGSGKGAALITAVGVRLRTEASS
# [12] = inhibitors of PGC1a acetylation in cells, dose response, cell-based, cherry-picked samples (AID 720514); assay type: functional;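 also: potency may reflect raised or lowered acetylation signal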
# [13] = non-specific cell cytotoxicity, dose response, cytotoxicity control for PAX8 inhibitor project, plate reader, dry powder samples (AID 743021); assay type: functional, cell-based
# Paired box protein Pax-8 = Paired box protein Pax-8 (Homo sapiens, UniProt Q06710); assay: inhibitors of PAX8-driven TPO luciferase reporter, dose response, RMG-I cells, cherry-pick (AID 687027); assay type: functional, cell-based;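 also: luciferase reporter driven by Pax8 target thyroperoxidase promoter measured by SteadyGlo luminescence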
# Melanocortin receptor 4 = Melanocortin receptor 4 (Homo sapiens, UniProt P32245); assay type: functional, cell-based;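 also: Cell-based assay with luminescence read-out, confirmatory dose-response testing for agonist activity of biased ligands at MC4R; human U2OS cells with tagged receptor and beta-arrestin; potency of agonists that increase receptor coupling to beta-arrestin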
# [14] = control 3'UTR Renilla luciferase suppression, dose response, counter-screen for Shn3 inhibitor project, cell-based, Clone20-Shn3RL, cherry-picked (AID 624133); assay type: functional
# [15] = HepG2 cell cytotoxicity, dose response, cytotoxicity control for Shn3 inhibitor project, CellTiter-Glo, cherry-picked (AID 624134); assay type: functional, cell-based
# [16] = Shn3 3'UTR reporter inhibitors, dose response, cell-based, Clone20 osteoblasts, firefly luciferase, cherry-picked (AID 624132); assay type: functional;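 also: firefly luciferase luminescence from reporter carrying the Shn3 3'UTR in osteoblasts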
# [17] = target: Adenosylmethionine-8-amino-7-oxononanoate aminotransferase (Mycobacterium tuberculosis, UniProt P9WQ81); assay: Mycobacterium tuberculosis BioA enzyme inhibitor Measured in Biochemical System Using Plate Reader - 2163-02_Inhibitor_Dose_CherryPick_Activity.; assay type: functional, Mycobacterium tuberculosis UT205
# [18] = target: Fructose-bisphosphate aldolase (Mycobacterium tuberculosis, UniProt P9WQA3); assay: Fluorescence-based biochemical high throughput dose response assay for inhibitors of the fructose-bisphosphate aldolase (FBA) of M. tuberculosis.; assay type: functional
# [19] = target: Aryl hydrocarbon receptor (Homo sapiens, UniProt P35869); conditions: Potency;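 also: confirmatory quantitative high-throughput screen measuring activation of the AhR signaling pathway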
# Aryl hydrocarbon receptor, sequence (P35869 whole entry): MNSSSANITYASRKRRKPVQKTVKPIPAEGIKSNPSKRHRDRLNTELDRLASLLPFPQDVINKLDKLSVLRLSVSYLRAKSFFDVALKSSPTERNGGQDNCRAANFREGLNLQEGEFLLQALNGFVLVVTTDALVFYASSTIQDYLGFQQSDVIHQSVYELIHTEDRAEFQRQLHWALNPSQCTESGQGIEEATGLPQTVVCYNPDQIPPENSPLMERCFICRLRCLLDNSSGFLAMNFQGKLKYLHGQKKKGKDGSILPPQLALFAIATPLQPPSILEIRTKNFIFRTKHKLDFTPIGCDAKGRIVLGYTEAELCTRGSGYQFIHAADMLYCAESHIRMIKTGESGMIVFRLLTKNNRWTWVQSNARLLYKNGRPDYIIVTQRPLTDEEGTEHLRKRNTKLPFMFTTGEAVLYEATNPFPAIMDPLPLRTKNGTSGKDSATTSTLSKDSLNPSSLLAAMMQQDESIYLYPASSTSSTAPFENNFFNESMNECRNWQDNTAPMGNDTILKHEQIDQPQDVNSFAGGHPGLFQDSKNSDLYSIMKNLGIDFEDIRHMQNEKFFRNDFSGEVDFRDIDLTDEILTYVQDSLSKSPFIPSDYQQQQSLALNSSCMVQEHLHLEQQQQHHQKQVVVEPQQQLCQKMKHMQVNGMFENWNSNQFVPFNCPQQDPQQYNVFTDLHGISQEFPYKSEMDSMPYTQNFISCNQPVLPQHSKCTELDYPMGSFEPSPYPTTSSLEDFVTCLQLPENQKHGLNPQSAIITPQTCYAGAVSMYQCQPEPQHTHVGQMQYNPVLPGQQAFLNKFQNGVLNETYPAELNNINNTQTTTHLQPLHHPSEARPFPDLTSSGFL
# T2 sequence (P11940 whole entry): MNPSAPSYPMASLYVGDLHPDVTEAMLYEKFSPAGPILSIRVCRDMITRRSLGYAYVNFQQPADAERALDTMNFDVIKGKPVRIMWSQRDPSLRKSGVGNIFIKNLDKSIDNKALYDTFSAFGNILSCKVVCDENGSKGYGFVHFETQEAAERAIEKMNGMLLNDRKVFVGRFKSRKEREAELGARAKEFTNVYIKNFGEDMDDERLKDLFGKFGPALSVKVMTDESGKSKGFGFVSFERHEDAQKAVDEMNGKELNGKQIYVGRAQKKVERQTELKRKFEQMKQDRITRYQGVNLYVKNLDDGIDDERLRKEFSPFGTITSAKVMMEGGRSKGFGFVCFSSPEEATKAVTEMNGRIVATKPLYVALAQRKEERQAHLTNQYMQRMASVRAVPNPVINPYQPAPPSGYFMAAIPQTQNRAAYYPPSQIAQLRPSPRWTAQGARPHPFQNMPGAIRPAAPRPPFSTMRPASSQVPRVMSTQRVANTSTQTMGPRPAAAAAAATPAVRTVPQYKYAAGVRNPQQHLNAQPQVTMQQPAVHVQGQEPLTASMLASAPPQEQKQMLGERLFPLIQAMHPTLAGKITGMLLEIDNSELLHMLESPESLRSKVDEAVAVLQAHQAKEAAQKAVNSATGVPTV
# Adenosylmethionine-8-amino-7-oxononanoate aminotransferase, sequence (P9WQ81 whole entry): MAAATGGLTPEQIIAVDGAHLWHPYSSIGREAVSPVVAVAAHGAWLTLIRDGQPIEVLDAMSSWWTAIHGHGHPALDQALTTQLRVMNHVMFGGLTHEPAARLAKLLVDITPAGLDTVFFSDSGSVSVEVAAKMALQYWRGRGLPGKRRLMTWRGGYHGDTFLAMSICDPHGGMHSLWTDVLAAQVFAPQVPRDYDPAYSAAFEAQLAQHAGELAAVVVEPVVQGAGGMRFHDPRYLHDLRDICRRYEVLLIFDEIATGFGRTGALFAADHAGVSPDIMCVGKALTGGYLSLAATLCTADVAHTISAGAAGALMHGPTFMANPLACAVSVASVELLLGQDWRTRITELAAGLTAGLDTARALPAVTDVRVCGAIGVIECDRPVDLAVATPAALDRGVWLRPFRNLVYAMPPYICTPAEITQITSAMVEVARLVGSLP
# Paired box protein Pax-8, sequence (Q06710 whole entry): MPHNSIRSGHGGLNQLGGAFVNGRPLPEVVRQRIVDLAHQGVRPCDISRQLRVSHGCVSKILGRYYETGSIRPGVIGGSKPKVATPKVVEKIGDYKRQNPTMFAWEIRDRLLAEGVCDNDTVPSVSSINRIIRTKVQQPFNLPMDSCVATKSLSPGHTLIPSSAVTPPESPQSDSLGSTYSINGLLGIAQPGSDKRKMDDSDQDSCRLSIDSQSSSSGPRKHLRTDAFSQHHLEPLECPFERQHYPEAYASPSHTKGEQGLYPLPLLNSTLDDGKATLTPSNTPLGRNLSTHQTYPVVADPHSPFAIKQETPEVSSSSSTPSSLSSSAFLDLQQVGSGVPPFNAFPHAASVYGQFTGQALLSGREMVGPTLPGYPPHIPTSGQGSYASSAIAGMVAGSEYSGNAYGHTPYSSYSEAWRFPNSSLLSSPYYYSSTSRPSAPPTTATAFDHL
# Fructose-bisphosphate aldolase, sequence (P9WQA3 whole entry): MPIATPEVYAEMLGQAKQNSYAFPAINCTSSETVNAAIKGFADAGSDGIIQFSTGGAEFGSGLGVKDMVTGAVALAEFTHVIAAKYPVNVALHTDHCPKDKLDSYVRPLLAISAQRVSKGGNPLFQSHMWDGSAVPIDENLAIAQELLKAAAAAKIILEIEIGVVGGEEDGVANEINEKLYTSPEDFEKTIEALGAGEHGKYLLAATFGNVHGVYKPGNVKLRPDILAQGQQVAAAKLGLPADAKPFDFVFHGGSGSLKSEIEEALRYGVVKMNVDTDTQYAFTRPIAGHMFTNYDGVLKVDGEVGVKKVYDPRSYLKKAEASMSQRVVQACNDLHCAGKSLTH
# Melanocortin receptor 4, sequence (P32245 whole entry): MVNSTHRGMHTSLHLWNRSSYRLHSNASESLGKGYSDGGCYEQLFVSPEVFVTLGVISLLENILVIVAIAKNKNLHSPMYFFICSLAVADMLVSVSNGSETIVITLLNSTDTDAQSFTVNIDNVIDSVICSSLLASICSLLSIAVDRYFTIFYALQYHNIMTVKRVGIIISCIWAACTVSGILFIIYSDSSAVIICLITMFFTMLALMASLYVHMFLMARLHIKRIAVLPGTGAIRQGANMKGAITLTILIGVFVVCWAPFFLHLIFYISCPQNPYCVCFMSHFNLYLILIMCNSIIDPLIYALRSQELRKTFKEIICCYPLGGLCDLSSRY
compound,measurement,setting,value
CC1=C(NCCc2ccccc2)CCC1=O,IC50,[1],5.79 µM (active)
same,EC50,[2],1.16 µM (active)
same,EC50,cells [3],> 29.9 µM (inactive)
same,IC50,cells [4],> 29.9 µM (inactive)
COC/C=C/C1=CC2=CC(=O)C(C)(OC(=O)c3cnc4ccccc4n3)C(=O)C2=CN1Cc1ccc(OC)cc1 (stereo not given),CC50,Vero,39.2 µM (active)
O=C(Nc1cccs1)Nc1c(F)c(F)c(F)c(F)c1F,IC50,[5],> 66 µM (inactive)
same,IC50,[6],> 66 µM (inactive)
O=C(CCNS(=O)(=O)c1ccc(Br)s1)Nc1ccc(Cl)cc1,EC50,[7],3.44 µM (active)
same,IC50,[8],83.3 µM (inactive)
same,IC50,[9],3.53 µM (active)
same,IC50,[10],1.85 µM (active)
same,EC50,[11],> 60 µM (inconclusive)
S=C(NCCSCc1ccc(Cl)cc1)Nc1ccccc1,IC50,[8],83.3 µM (inactive)
same,IC50,[9],8.52 µM (active)
same,IC50,[10],11.7 µM (inactive)
O=C(Nc1cccc(C(=O)Nc2cccc(C(F)(F)F)c2)c1)c1ccncc1,IC50,Hexokinase HKDC1,> 80 µM (inactive)
same,IC50,Hexokinase-1,> 80 µM (inactive)
COc1ccccc1/C=C/c1nc2ccccc2c(=O)n1Cc1ccccc1,IC50,Hexokinase HKDC1,> 80 µM (inactive)
same,IC50,Hexokinase-1,> 80 µM (inactive)
O=C(Nc1nnc(SCc2ccc(Cl)cc2)s1)c1ccc2ncsc2c1,IC50,Hexokinase HKDC1,> 80 µM (inactive)
same,IC50,Hexokinase-1,> 80 µM (inactive)
CCN1CCN(Cc2ccc(NC(=O)c3cc(NC(=O)c4cncc(-c5ccc(C#N)cc5)c4)cc(OC)c3)cc2C(F)(F)F)CC1,AC50,[12],6.66 µM (active)
same,AC50,[13],48.2 µM (active)
same,AC50,Paired box protein Pax-8,7.76 µM (active)
same,EC50,Melanocortin receptor 4,> 89.2 µM (inactive)
same,AC50,[14],7.18 µM (active)
same,AC50,[15],8.15 µM (active)
same,AC50,[16],3.36 µM (active)
O=C(Cc1ccccc1)N1CC[C@@H]2[C@H]1c1cc(Br)ccc1N[C@@H]2CO,AC50,[17],2.74 µM (active)
COc1ccc(OC)c2c1C(=O)CC2C (stereo not given),IC50,[18],2.23 µM (active)
CCNC(=O)[C@H]1[C@H](CO)[C@H]2Cn3c(ccc(-c4cccc(F)c4)c3=O)[C@H]2N1C(=O)Cc1cccnc1,AC50,[17],17 µM (active)
Cc1ccc(NC(=O)CSC(N)=O)cc1Cl,IC50,[5],> 66 µM (inactive)
same,IC50,[6],> 66 µM (inactive)
O=C(Nc1ccccc1)Nc1cnns1 [THIDIAZURON],AC50,[19],50.1 µM (inconclusive)
"O=P(OCC(Br)CBr)(OCC(Br)CBr)OCC(Br)CBr (stereo not given) [TRIS(2,3-DIBROMOPROPYL)PHOSPHATE]",AC50,[19],56.2 µM (inconclusive)
